Reference: PubChem BioAssay AID248 (DTP/NCI, 2004)
“And” between values parts separate entries of the source, which are not always exact repeats. Equal values may be shown once. Toxic doses and inconclusive results are not listed.

Test system: L1210 leukemia ip in BDF1 mice, survival T/C
Experiment: NCI In Vivo Anticancer Drug Screen. Data for tumor model L1210 Leukemia (intraperitoneal) in B6D2F1 (BDF1) mice
Settings: endpoint: mean survival time, higher = longer survival
Procedure, shortened: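 Tumor was transplanted into mice, which were then dosed with test compound or vehicle alone. Survival was recorded for each group, and the treated figure was expressed relative to the control figure.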

[1] = dose: 100.0 mg/kg/injection, schedule: Q04DX003 (ip), vehicle: carboxymethylcellulose (CMC)
[2] = dose: 200.0 mg/kg/injection, schedule: Q04DX003 (ip), vehicle: carboxymethylcellulose (CMC)
[3] = dose: 100.0 mg/kg/injection, schedule: Q01DX001 (ip), vehicle: carboxymethylcellulose (CMC)
[4] = dose: 200.0 mg/kg/injection, schedule: Q01DX001 (ip), vehicle: carboxymethylcellulose (CMC)
[5] = dose: 400.0 mg/kg/injection, schedule: Q01DX001 (ip), vehicle: carboxymethylcellulose (CMC)
[6] = dose: 100.0 mg/kg/injection, schedule: Q01DX009 (ip), vehicle: Klucel (hydroxypropylcellulose) (HPC)
[7] = dose: 200.0 mg/kg/injection, schedule: Q01DX009 (ip), vehicle: Klucel (hydroxypropylcellulose) (HPC)
[8] = dose: 400.0 mg/kg/injection, schedule: Q01DX009 (ip), vehicle: Klucel (hydroxypropylcellulose) (HPC)
[9] = dose: 50.0 mg/kg/injection, schedule: Q01DX009 (ip), vehicle: Klucel (hydroxypropylcellulose) (HPC)
[10] = dose: 100.0 mg/kg/injection, schedule: Q01DX009 (ip), vehicle: saline with Tween-80
[11] = dose: 100.0 mg/kg/injection, schedule: Q04DX003 (ip), vehicle: saline with Tween-80
[12] = dose: 200.0 mg/kg/injection, schedule: Q01DX009 (ip), vehicle: saline with Tween-80
[13] = dose: 200.0 mg/kg/injection, schedule: Q04DX003 (ip), vehicle: saline with Tween-80
[14] = dose: 400.0 mg/kg/injection, schedule: Q01DX009 (ip), vehicle: saline with Tween-80
[15] = dose: 400.0 mg/kg/injection, schedule: Q04DX003 (ip), vehicle: saline with Tween-80

With `CC1OCC2OC(C)OC(C(COC(c3ccccc3)(c3ccccc3)c3ccccc3)OS(C)(=O)=O)C2O1` (configuration not stated) the T/C (dose: 100.0 mg/kg/injection, schedule: Q01DX009 (ip), vehicle: saline) was 101 % of control, the T/C (dose: 100.0 mg/kg/injection, schedule: Q04DX003 (ip), vehicle: saline) was 102 % of control and the T/C (dose: 200.0 mg/kg/injection, schedule: Q01DX009 (ip), vehicle: saline) was 106 % of control. The T/C (dose: 200.0 mg/kg/injection, schedule: Q04DX003 (ip), vehicle: saline) was 98 % of control, the T/C (dose: 400.0 mg/kg/injection, schedule: Q01DX009 (ip), vehicle: saline) was 88 % of control and the T/C (dose: 400.0 mg/kg/injection, schedule: Q04DX003 (ip), vehicle: saline) was 93 % of control.
`NCC(=O)NCCCCCCCCCCNC(=O)CN` was tested, and the T/C (dose: 10.0 mg/kg/injection, schedule: Q01DX Z (ip), vehicle: saline) was 98 % of control, the T/C (dose: 30.0 mg/kg/injection, schedule: Q01DX Z (ip), vehicle: saline) was 95 % of control and the T/C (dose: 100.0 mg/kg/injection, schedule: Q01DX Z (ip), vehicle: saline) was 98 % of control.
In the case of `OC1(c2ccccc2)c2cscc2C(O)(c2ccccc2)c2c(Cl)sc(Cl)c21` (configuration not stated), the T/C (dose: 100.0 mg/kg/injection, schedule: Q01DX001 (ip), vehicle: saline with Tween-80) was 91 % of control and the T/C (dose: 400.0 mg/kg/injection, schedule: Q01DX001 (ip), vehicle: saline with Tween-80) was 87 % of control.
In the case of `O=C1C2C3CCC(O3)C2C(=O)N1Cc1ccccc1CBr` (configuration not stated), the T/C [1] was 95 % of control and the T/C [2] was 98 % of control.
`Cc1cc(OC(=O)Nc2cccc3ccccc23)ccc1Cl` was tested, and the T/C (dose: 100.0 mg/kg/injection, schedule: Q01DX009 (ip), vehicle: carboxymethylcellulose (CMC)) was 97 % of control and 101 % of control, the T/C (dose: 100.0 mg/kg/injection, schedule: Q04DX002 (ip), vehicle: Klucel (hydroxypropylcellulose) (HPC)) was 105 % of control and the T/C (dose: 100.0 mg/kg/injection, schedule: Q04DX002 (ip), vehicle: carboxymethylcellulose (CMC)) was 93 % of control and 91 % of control. The T/C [1] was 103 % of control, the T/C (dose: 200.0 mg/kg/injection, schedule: Q01DX009 (ip), vehicle: carboxymethylcellulose (CMC)) was 98 % of control and 91 % of control and the T/C (dose: 200.0 mg/kg/injection, schedule: Q04DX002 (ip), vehicle: Klucel (hydroxypropylcellulose) (HPC)) was 97 % of control. For the same compound, the T/C (dose: 200.0 mg/kg/injection, schedule: Q04DX002 (ip), vehicle: carboxymethylcellulose (CMC)) was 97 % of control and 98 % of control, the T/C [2] was 94 % of control and the T/C (dose: 400.0 mg/kg/injection, schedule: Q01DX009 (ip), vehicle: carboxymethylcellulose (CMC)) was 94 % of control and 98 % of control. The T/C (dose: 400.0 mg/kg/injection, schedule: Q04DX002 (ip), vehicle: Klucel (hydroxypropylcellulose) (HPC)) was 109 % of control, the T/C (dose: 400.0 mg/kg/injection, schedule: Q04DX002 (ip), vehicle: carboxymethylcellulose (CMC)) was 95 % of control and the T/C (dose: 400.0 mg/kg/injection, schedule: Q04DX003 (ip), vehicle: carboxymethylcellulose (CMC)) was 90 % of control.
In the case of `O=C(NCCCl)Nc1ccc(Br)cc1`, the T/C [3] was 101 % of control, the T/C [4] was 98 % of control and the T/C [5] was 115 % of control.
In the case of `CC1(C(=O)c2ccccc2)OC1c1ccccc1` (configuration not stated), the T/C [6] was 98 % of control, the T/C [7] was 104 % of control and the T/C [8] was 103 % of control.
`Cc1ccc(S(=O)(=O)N2CCCC(O)c3ccccc32)cc1` (configuration not stated) was tested, and the T/C [3] was 108 % of control, the T/C [4] was 106 % of control and the T/C [5] was 116 % of control.
`Nc1ccc(S(=O)(=O)c2cc(O)ccc2O)cc1` was tested, and the T/C [3] was 101 % of control, the T/C [4] was 100 % of control and the T/C [5] was 97 % of control.
`O=P(N1CCCCCC1)(N1CC1)N1CC1` was tested, and the T/C (dose: 1.7 mg/kg/injection, schedule: Q01DX Z (ip), vehicle: saline) was 107 % of control, the T/C (dose: 2.6 mg/kg/injection, schedule: Q01DX Z (ip), vehicle: saline) was 114 % of control and the T/C (dose: 4.0 mg/kg/injection, schedule: Q01DX Z (ip), vehicle: saline) was 120 % of control. For the same compound, the T/C (dose: 9.0 mg/kg/injection, schedule: Q01DX Z (ip), vehicle: saline) was 152 % of control.
With `O=S1(=O)CC(c2ccccc2)=NN=C(c2ccccc2)C1` the T/C (dose: 100.0 mg/kg/injection, schedule: Q01DX001 (ip), vehicle: saline) was 92 % of control, the T/C (dose: 200.0 mg/kg/injection, schedule: Q01DX001 (ip), vehicle: saline) was 86 % of control and the T/C (dose: 400.0 mg/kg/injection, schedule: Q01DX001 (ip), vehicle: saline) was 92 % of control.
In the case of `OCC1(c2ccccc2)OC1c1ccccc1` (configuration not stated), the T/C [9] was 95 % of control, the T/C (dose: 75.0 mg/kg/injection, schedule: Q04DX003 (ip), vehicle: Klucel (hydroxypropylcellulose) (HPC)) was 102 % of control and the T/C [6] was 96 % of control. The T/C (dose: 150.0 mg/kg/injection, schedule: Q04DX003 (ip), vehicle: Klucel (hydroxypropylcellulose) (HPC)) was 102 % of control, the T/C [7] was 96 % of control and the T/C (dose: 300.0 mg/kg/injection, schedule: Q04DX003 (ip), vehicle: Klucel (hydroxypropylcellulose) (HPC)) was 107 % of control.
`Cc1ccc(C)c(-n2c(-c3ccc(Br)cc3)csc2=NC(=O)c2ccccc2F)c1` was tested, and the T/C [10] was 102 % of control, the T/C [11] was 101 % of control and the T/C [12] was 101 % of control. The T/C [13] was 98 % of control, the T/C [14] was 93 % of control and the T/C [15] was 102 % of control.
In the case of `Cc1ccc(OCCOc2ccc(NC(=O)CC(=O)c3cccc([N+](=O)[O-])c3)cc2)cc1`, the T/C [6] was 100 % of control, the T/C (dose: 100.0 mg/kg/injection, schedule: Q04DX003 (ip), vehicle: Klucel (hydroxypropylcellulose) (HPC)) was 95 % of control and the T/C [7] was 103 % of control. The T/C (dose: 200.0 mg/kg/injection, schedule: Q04DX003 (ip), vehicle: Klucel (hydroxypropylcellulose) (HPC)) was 98 % of control, the T/C [8] was 97 % of control and the T/C (dose: 400.0 mg/kg/injection, schedule: Q04DX003 (ip), vehicle: Klucel (hydroxypropylcellulose) (HPC)) was 97 % of control.
For `Clc1ccccc1C[P+](c1ccccc1)(c1ccccc1)c1ccccc1`, the T/C (dose: 12.5 mg/kg/injection, schedule: Q01DX001 (ip), vehicle: saline) was 92 % of control, the T/C (dose: 25.0 mg/kg/injection, schedule: Q01DX001 (ip), vehicle: saline) was 106 % of control and the T/C (dose: 50.0 mg/kg/injection, schedule: Q01DX001 (ip), vehicle: saline) was 100 % of control.
For `O=C(Nc1cccc([N+](=O)[O-])c1)Oc1ccc(-c2ccccc2)cc1`, the T/C [10] was 101 % of control and 103 % of control, the T/C (dose: 100.0 mg/kg/injection, schedule: Q04DX002 (ip), vehicle: saline with Tween-80) was 97 % of control and 111 % of control and the T/C [11] was 93 % of control. The T/C [12] was 100 % of control and 101 % of control, the T/C (dose: 200.0 mg/kg/injection, schedule: Q04DX002 (ip), vehicle: saline with Tween-80) was 96 % of control and 104 % of control and the T/C [13] was 93 % of control. The T/C [14] was 94 % of control, the T/C (dose: 400.0 mg/kg/injection, schedule: Q04DX002 (ip), vehicle: saline with Tween-80) was 93 % of control and 103 % of control and the T/C [15] was 102 % of control.
For `C=CCc1ccc(OCCOCCN(CC=C(C)C)CC=C(C)C)c(OC)c1`, the T/C (dose: 12.5 mg/kg/injection, schedule: Q01DX009 (ip), vehicle: Klucel (hydroxypropylcellulose) (HPC)) was 100 % of control, the T/C (dose: 12.5 mg/kg/injection, schedule: Q04DX003 (ip), vehicle: Klucel (hydroxypropylcellulose) (HPC)) was 96 % of control and the T/C (dose: 25.0 mg/kg/injection, schedule: Q01DX009 (ip), vehicle: Klucel (hydroxypropylcellulose) (HPC)) was 97 % of control. For the same compound, the T/C (dose: 25.0 mg/kg/injection, schedule: Q04DX003 (ip), vehicle: Klucel (hydroxypropylcellulose) (HPC)) was 98 % of control, the T/C [9] was 95 % of control and the T/C (dose: 50.0 mg/kg/injection, schedule: Q04DX003 (ip), vehicle: Klucel (hydroxypropylcellulose) (HPC)) was 88 % of control.
In the case of `CCC1CCC2C(CCC3(N(C)C)CCC(OC)C(OC)C23)C1` (configuration not stated), the T/C (dose: 3.13 mg/kg/injection, schedule: Q01DX001 (ip), vehicle: saline with Tween-80) was 98 % of control, the T/C (dose: 6.25 mg/kg/injection, schedule: Q01DX001 (ip), vehicle: saline with Tween-80) was 96 % of control and the T/C (dose: 12.5 mg/kg/injection, schedule: Q01DX001 (ip), vehicle: saline with Tween-80) was 100 % of control.
With `Nc1cc2ccc3ccccc3c2c2ccccc12` the T/C (dose: 100.0 mg/kg/injection, schedule: Q01DX001 (ip), vehicle: Klucel (hydroxypropylcellulose) (HPC)) was 110 % of control and the T/C (dose: 130.0 mg/kg/injection, schedule: Q01DX001 (ip), vehicle: Klucel (hydroxypropylcellulose) (HPC)) was 94 % of control.
`CNCCc1cc2c(cc1C=O)OCO2` was tested, and the T/C (dose: 75.0 mg/kg/injection, schedule: Q01DX001 (ip), vehicle: saline) was 96 % of control and the T/C (dose: 150.0 mg/kg/injection, schedule: Q01DX001 (ip), vehicle: saline) was 106 % of control.
